Reference: publication PMC2635646, “Recognition Properties and Competitive Assays of a Dual Dopamine/Serotonin Selective Molecularly Imprinted Polymer” (International Journal of Molecular Sciences, 2008)
Where a name gives a salt, the structure may show the parent alone. Read-outs that look alike come from different tables or passages of the source.

Experiments:
[1] = Time course of binding of ergot compounds to DS-MIP (HPLC-ECD assay); conditions: 4:1 (v/v) methanol/water, 28 ± 1 °C
Method: The specificity of binding of a group of ergoline derivatives (ergocryptine, ergocornine, ergocristine, ergonovine, agroclavine, pergolide and terguride) to DS-MIP was assessed in 4:1 (v/v) methanol/water at room temperature (28 ± 1 °C). The binding of all the ergots to DS-MIP reached a constant value within 3 h, with ~50% of the DS-MIP-analyte complex being formed by 1 h (Figure 7). […] Based on the specific binding of the ergots to DS-MIP, the tested ergots are readily distinguished into three groups, based on their chemical structures. All of the ergot derivatives tested had typical four fused rings, indolyl amine, piperidinyl amine, and N-methyl and heteroatom-containing alkylpiperidinyl substituents (except pergolide with the N-propyl substituent). The differential binding of the ergot derivatives is probably a consequence of the interaction of the piperidinyl and indolyl amines with acidic and amide functions within the polymer. The orientation of functional entities within the D and S imprinted cavities was not optimal to complement the ergot derivatives, but they existed in sufficient numbers to produce the observed binding effect.
Figure 7. Time course for the binding of ergot compounds to DS-MIP at room temperature (28 ± 1 °C). Binding studies were conducted in 4:1 (v/v) methanol/water using 12.5 mg of polymer and 12.5 μg of each ergot in a final volume of 5 mL (4.1–10.5 μM). At equilibrium, analytes were quantitated in the filtrate by chromatographic assays as described in the Experimental Section. The values shown are mean ± SD of three replicate specimens.
The binding reactivities of ergocryptine, ergocristine, ergocornine, ergonovine, agroclavine, pergolide and terguride, in an incubation medium were evaluated using a chromatographic assay. Briefly, DS-MIP particulates (2.5 mg/mL) were incubated between 0 and 13 h in 10-mL vials at room temperature by agitation with each ergot compound (2.5 μg/mL, 4.1–10.5 μM) in methanol/water (5 mL, 4:1, v/v). At pre-determined time intervals, the filtrate was analysed for the amount of unbound substance by HPLC (see below). The percentage of ergot bound to the polymer was plotted as a function of the incubation time. Each experiment was repeated three times.
A reversed phase HPLC-ECD detection method was used for assay of the ergots. A mobile phase comprising of a buffer (pH 7.4) and methanol (34:66, % v/v) was used for elution. The buffer composition was as follows: 15 mM KH2PO4, 3.75 mM sodium heptanesulfonate and 7.5 mM KCl aqueous solution adjusted to pH 7.4 by phosphoric acid. The analytical column was a Luna 5μ C18, 25 cm × 0.46 cm (Phenomenex, CA, USA). A flow-rate of 1.0 mL/min was used. The electrochemical detector was set at 0.8 V potential. Correlation coefficients for calibration curves for the ergots in the range 2–25 μg/mL ([…]) were greater than 0.999. The sensitivity of detection was about 1.0 μg/mL (1.64–4.20 μM) and the reproducibility of the peak areas of analytes was more than 95%.

[2] = Competitive ligand binding assay on DS-MIP with D as fluorescent probe; conditions: 25 mg polymer, D 6.60 μM, 5 mL 4:1 methanol/water, 28 ± 1 °C, mean ± SD, n = 3
Method: (§1) In this study, DS-MIP was employed as the sorbent phase for the determination of binding characteristics of the ergot family of alkaloids by competitive ligand binding assay experiment. The ability of the various ergot alkaloids (ergocryptine, ergocornine, ergocristine, ergonovine, agroclavine, pergolide and terguride) to displace bound D and S from the binding sites was measured. Figures 8(a,b) show competitive binding assays with the ergots in the presence of D and S as fluorescent probes. The typical sigmoid calibration curves were obtained for both the D ligand and the S ligand. […] Clearly, the ergot derivatives are able to act as competitors at the DS-MIP binding sites.
(§2) Figure 8. Plots of the ratio of the normalized signal (B/Bî) for MIP to that obtained for NIP against the logarithm of the ergot concentrations for the competitive ligand binding assay using DS-MIP as adsorbent phase and (a) D and (b) S as a fluorescent probe. The values shown are mean ± SD of three replicate specimens.
(§3) Seven ergoline compounds (ergocryptine, ergocristine, ergocornine, ergonovine, agroclavine, pergolide and terguride) were assessed for their ability to displace D or S bound to DS-MIP. DS-MIP or NIP particles (25 mg) were mixed with 6.25 μg of either D (or S) and varying amounts of ergot (final concentration: 0.02 - 500 μg/mL or 0.03 - 890.20 μM) in the suspension solvent (4:1, v/v methanol/water) up to a final volume of 5 ml. The mixture was incubated for 8 h at room temperature, maintaining constant stirring. The changes in fluorescence intensity of D probe in solution were monitored at 320 nm following excitation at 279 nm; for the S probe in solution, monitoring was at 335 nm after excitation at 300 nm. The experimental signals were normalized as: B/Bî, where B is the fluorescence intensity measured in the presence of increasing ergot concentrations and Bî is the signal in the absence of the ergot compound. The ratio of the normalized signal for MIP to that obtained for NIP was plotted as a function of the logarithm of the competitor concentration. Statistical analysis of concentration-response curves was performed by using the computer program GraphPad software, which calculates the lower and upper plateaus, the slope, and the IC50, concentration of an inhibitor producing 50% inhibition. An apparent inhibition constant (Ki) value was calculated using eq (3): (3) Ki=IC50/(1+[L]/Kd) where Ki = apparent inhibitor constant, [L] = free concentration of dopamine or serotonin, and Kd = apparent dissociation constant of a given MIP for D (or S). All experiments were performed in triplicate.

[3] = Competitive ligand binding assay on DS-MIP with S as fluorescent probe; conditions: 25 mg polymer, S 5.90 μM, 5 mL 4:1 methanol/water, 28 ± 1 °C, mean ± SD, n = 3
Method: as §1, §2, §3

[4] = target: dopamine receptors derived from rat hypothalamus; test: Displacement of D probe from natural receptor; assay type: binding, male-Wistar rat; conditions: 10 mg protein, 0.25 μmole D in 1 mL (250 μM), 37 °C, mean ± SD, n = 4; read-out: Ki, D ligand, Rat hypothalamus
Method: (§4) The equilibrium binding constants of the ergots on dopamine and serotonin receptors derived from rat hypothalamus was examined in a displacement assay using the added D and S as the molecular probes. The male-Wistar rat hypothalami receptors were isolated using a previously described procedure. The receptor pellets were washed with 50 mM Tris HCl until the endogenous D and S are no longer found in the rinse as examined by the fluorescence method described in the binding study. The pellets were then re-suspended in 50 mM Tris HCl with 0.5 mM Na2EDTA, 0.1% Na ascorbate before use. The protein content of the receptor pellets was verified by using the procedure of Bradford. Saturation experiments for the rat hypothalamus receptor were carried out by varying the concentration of D or S ligand in a 50 mM Tris HCl with 0.5 mM Na2EDTA and 0.1% Na ascorbate solution at 37 °C. The D and S binding at various concentrations was determined, using the fluorescence spectroscopic method for assay of the unbound probe as in the binding study.
(§5) The ability of 6–8 concentrations of test ergot (0.1–500 μg/mL or 0.16–890.20 μM) for typical profiles) to displace 0.25 μmole D and S probes was measured in drug displacement studies. […] To examine the equilibrium binding constant for the ergots, the unbound D and S probes was measured by fluorescence spectroscopy with the use of cation exchange resin to separate the protein bound and unbound probes. All experiments were performed four times using 50 mM Tris HCl with 0.5 mM Na2EDTA, 0.1% Na ascorbate as the medium, to which 10 mg of protein was added giving a final volume of 1 mL. The tubes were allowed to equilibrate for 30 min at 37 °C before filtering with a 0.45 μm cellulose acetate syringe filter (Whatman, NJ, USA) and were washed with two 5 mL ice-cold Tris-buffer. The filters were lyophilized and analysed for free probes. The supernatant aliquots were then passed through small columns of Amberlite CG-50 as previously reported. The 3 mL of formic acid-ethanol (1:3, v/v) eluates containing the analytes were evaporated to dryness in a polyethylene vial and the residues reconstituted with methanol (5 mL) before assay using fluorescence spectrometry. The binding of D and S probes in the presence of the ergots was calculated and plotted to the ergot concentrations for determination of IC50. An apparent Ki value was calculated in the same manner as described for the competitive ligand binding assay with DS-MIP.

[5] = target: serotonin receptors derived from rat hypothalamus; test: Displacement of S probe from natural receptor; assay type: binding, male-Wistar rat; conditions: 10 mg protein, 0.25 μmole S in 1 mL (250 μM), 37 °C, mean ± SD, n = 4; read-out: Ki, S ligand, Rat hypothalamus
Method: as §4, §5

[6] = 1H-NMR titration of template/functional monomer complexation; assay type: binding; conditions: d6-DMSO, 25 °C
Description: A mixture of methanol and water (4:1, v/v) was chosen as the porogen solvent for the D and S templates, as the hydrochloride salts were soluble only in polar solvents. The strength and positioning of the monomer-template interactions are of importance in developing materials with good molecular recognition properties. For the current work, the functional monomers and cross-linker had been constructed into the MIP structure with a view toward obtaining an efficient recognition system in a polar medium. MAA and ACM were generally used as functional monomers for the imprinting process. Both D and S have a phenolic hydroxyl and the nitrogen atom(s) of the amine group(s) acts as a hydrogen donor-acceptor moiety for binding functional monomers with a corresponding hydrogen bonding pattern. […] However, the huge excess of water and methanol that would be form H-bonds in competition with template and monomer, would reduce binding energy between template and monomer. […] The MBAA cross-linker also forms hydrogen bonds with the carboxylic acid and amino groups of the templates. Figure 2 illustrates the dual dopamine/serotonin molecular recognition site generation in this work.
The change in chemical shifts of proton resonances as a function of D (or S) concentrations was studied in DMSO-d6.

[7] = tested on: dopamine receptors derived from rat hypothalamus; conditions: D ligand, 50 mM Tris HCl, 37 °C, mean ± SD, n = 3
Method: as §4

[8] = tested on: serotonin receptors derived from rat hypothalamus; test: Saturation binding of S ligand to rat hypothalamus receptor (Scatchard); set-up: species or system male-Wistar rat; conditions: 50 mM Tris HCl, 37 °C, mean ± SD
Method: as §4

Compound | Ki [2] [µM] | Ki [3] [µM] | Ki [4] [nM] | Ki [5] [µM] | binding to DS-MIP, fold lower than agroclavine [1] | further results
CC1=C[C@@H]2c3cccc4[nH]cc(c34)C[C@H]2N(C)C1 [Agroclavine, agroclavine] | 0.4 ± 0.01 | 5.31 ± 0.22 | 1.5 ± 0.2 | 0.0012 ± 0.0001 | – | binding with DS-MIP ([1]; DS-MIP 2.5 mg/mL, ergot 2.5 μg/mL): 70%
NCCc1ccc(O)c(O)c1 [D, Dopamine hydrochloride] | – | – | – | – | – | Kd ([6]; 1:1 complex of D with single monomer, read-out: apparent dissociation constant (app. Kdiss) of complex with ACM): 1980 ± 100 µM; Kd ([6]; 1:1 complex of D with single monomer, read-out: apparent dissociation constant (app. Kdiss) of complex with MAA): 2120 ± 200 µM; receptor binding (Bmax) [7]: 1.50 ± 0.09 pmol/mg protein; Kd ([7]; read-out: dissociation constant (Kd)): 0.00053 ± 0.00015 µM
CC(C)[C@H]1C(=O)N2CCC[C@H]2[C@]2(O)O[C@](NC(=O)[C@@H]3C=C4c5cccc6[nH]cc(c56)C[C@H]4N(C)C3)(C(C)C)C(=O)N12 [Ergocornine, ergocornine] | 217 ± 2.59 | 27.2 ± 0.78 | 10.4 ± 0.2 | 0.02 ± 0.0001 | about 2 fold | –
CC(C)[C@@]1(NC(=O)[C@@H]2C=C3c4cccc5[nH]cc(c45)C[C@H]3N(C)C2)O[C@@]2(O)[C@@H]3CCCN3C(=O)[C@H](Cc3ccccc3)N2C1=O [Ergocristine, ergocristine] | 141 ± 1.47 | 19.3 ± 0.6 | 7.6 ± 0.1 | 0.0068 ± 0.0002 | about 2 fold | –
CC(C)C[C@H]1C(=O)N2CCC[C@H]2[C@]2(O)O[C@](NC(=O)[C@@H]3C=C4c5cccc6[nH]cc(c56)C[C@H]4N(C)C3)(C(C)C)C(=O)N12 [Ergocryptine, ergocryptine] | 124.9 ± 1.22 | 24.9 ± 0.69 | 2.8 ± 0.2 | 0.01 ± 0.0004 | about 2 fold | –
C[C@@H](CO)NC(=O)[C@@H]1C=C2c3cccc4[nH]cc(c34)C[C@H]2N(C)C1 [Ergonovine, ergonovine maleate] | 69.57 ± 0.51 | 14.7 ± 0.29 | 2.5 ± 0.1 | 0.0012 ± 0.0001 | ~ 1.25 fold | –
CCCN1C[C@H](CSC)C[C@@H]2c3cccc4[nH]cc(c34)C[C@H]21 [Pergolide, pergolide mesylate] | 0.2 ± 0.01 | 12.78 ± 0.09 | 0.7 ± 0.1 | 0.006 ± 0.0002 | ~ 1.25 fold | –
NCCc1c[nH]c2ccc(O)cc12 [S, serotonin hydrochloride] | – | – | – | – | – | Kd ([6]; S template, 1:1 complex, read-out: app. Kdiss with MAA, template's hydroxyl group): 680 ± 100 µM; Kd ([6]; S template, 1:1 complex, read-out: app. Kdiss with MAA, template's indolyl amino group): 920 ± 100 µM; Kd ([6]; S template, read-out: app. Kdiss with ACM, template's hydroxyl group): 190 ± 100 µM; Kd ([6]; S template, read-out: app. Kdiss with ACM, template's indolyl amino group): 430 ± 100 µM; receptor binding (Bmax) ([8]; n = 3): 1.11 ± 0.01 pmol/mg protein; Kd ([8]; n = 3, read-out: dissociation constant (Kd)): 0.00011 ± 1e-05 µM
CCN(CC)C(=O)N[C@H]1C[C@@H]2c3cccc4[nH]cc(c34)C[C@H]2N(C)C1 [Terguride, terguride] | 0.14 ± 0.01 | 7.79 ± 0.17 | 0.03 ± 0.005 | 0.0013 ± 0.0001 | ~ 1.25 fold | –
